Assay results: patent US20200131196A1 (Mount Tam Therapeutics, Inc., priority 2017, published 2020)
Several values for one entry are separate records, joined by “and”; a condition that tells them apart may be missing. Equal entries are not always repeated.

Columns and labels:
TORC1 = biological target: T1, TORC1 (Homo sapiens, UniProt P42345+P62942); assay: TORC1 inhibition in PC3 cells (Western blot, phospho-rpS6); format: cell-based
T1 construct: endogenous in cells; host or cells: PC3 cells
Procedure: (§1) Equal amounts of protein were resolved by SDS-PAGE and transferred to nitrocellulose membrane using the Invitrogen Nu-Page system. […] The following day, blots were washed 3 times in TBST, incubated for 2 hr with secondary antibodies (donkey anti rabbit hrp conjugated), and finally washed an additional 3 times in TBST. ECL Prime (Amersham) was used to detect the proteins of interest and ImageJ was used to quantify blots.

TORC2 = biological target: T2, TORC2 (Homo sapiens, UniProt P42345+P62942); assay: TORC2 inhibition in PC3 cells (Western blot, phospho Akt (S473)); format: cell-based
T2 construct: endogenous in cells; host or cells: PC3 cells
Procedure: as §1

[1] = mouse, in vivo, ip
Excerpt: Tumor growth was monitored daily. […] Significance was set at p≤0.05.

[2] = Whole blood concentrations in mice after IP dosing (LC-MS/MS); format: in vivo, mouse
Procedure: Shown below are whole blood concentrations following administration of the compound of Formula II to mice. The compound of Formula II was administered to mice at 2 mg/kg or 10 mg/kg and the concentration of the compound in whole blood determined. These determinations were made using protein precipitation, liquid chromatography (LC), and mass spectrometry (MS/MS). Ten μl aliquots of whole blood and matrix calibration standards were distributed in a 96-well plate; 10 μl aliquots of blank matrix for matrix blanks and control blanks were included as controls. Ten μl of water was added to each sample followed by vortexing. One hundred sixty […] of internal standard was added to each sample except the matrix blanks; 160 μl 70:30 water:acetonitrile (ACN) was added to matrix blanks. This was followed by a […]. One hundred fifty μl of the resultant supernatant was then transferred to a new 96-well plate and the samples blown to dryness at 35° C. The resultant product was then reconstituted with 90 μl ACN.

T2 sequence (P62942 2-108 limits assumed, other chains not shown): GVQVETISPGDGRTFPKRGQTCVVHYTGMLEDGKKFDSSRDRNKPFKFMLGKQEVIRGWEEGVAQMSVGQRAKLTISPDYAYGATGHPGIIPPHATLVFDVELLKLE

## CO[C@H]1C[C@@H]2CC[C@@H](C)[C@@](O)(O2)C(=O)C(=O)N2CCCC[C@H]2C(=O)O[C@H]([C@H](C)C[C@H]2C[C@H]3C[C@@H]2C[C@@H]3O)CC(=O)[C@H](C)/C=C(\C)[C@@H](O)[C@@H](OC)C(=O)[C@H](C)C[C@H](C)/C=C/C=C/C=C/1C [Formula II, C37-[(1R,2S,4R,5S)-5-hyhroxybicyclo[2.2.1]heptane] rapamycin]
TORC1
  TORC1/TORC2 Selectivity: 50x
  selectivity of mTORC1 vs mTORC2 inhibition compared with the polyketide disclosed in U.S. Pat. No. 9,382,266 (in words): less selectively
TORC1; Western blot
  IC50: 0.099 nM
TORC2
  IC50: 5 nM
[1]
  Body Wt. % Δ from Baseline, Mean: 14.68%
  Body Wt. % Δ from Baseline, Median: 14.64%
  Change in Body Weight Day 1-30, Mean: 3.13
  Change in Body Weight Day 1-30, Median: 3.08
  Day 30 Body Weight, Mean: 24.37 g
  Day 30 Body Weight, Median: 24.12 g
[2]; 2 mg/kg IP QD × 3 days, Day 1, 1.00 hrs
  Formula II Concentrations in Mouse Whole Blood, Mean: 383 ng/mL
[2]; 2 mg/kg IP QD × 3 days, Day 1, 1.00 hrs, animals 7, 8, 9
  Formula II Concentrations in Mouse Whole Blood, individual animals: 452 ng/mL and 380 ng/mL and 317 ng/mL
[2]; 2 mg/kg IP QD × 3 days, Day 1, 2.00 hrs
  Formula II Concentrations in Mouse Whole Blood, Mean: 403 ng/mL
[2]; 2 mg/kg IP QD × 3 days, Day 1, 2.00 hrs, animals 7, 8, 9
  Formula II Concentrations in Mouse Whole Blood, individual animals: 415 ng/mL (2×) and 378 ng/mL
[2]; 2 mg/kg IP QD × 3 days, Day 1, 6.00 hrs
  Formula II Concentrations in Mouse Whole Blood, Mean: 464 ng/mL
[2]; 2 mg/kg IP QD × 3 days, Day 1, 6.00 hrs, animals 7, 8, 9
  Formula II Concentrations in Mouse Whole Blood, individual animals: 382 ng/mL and 520 ng/mL and 490 ng/mL
[2]; 2 mg/kg IP QD × 3 days, Day 1, 24.0 hrs, animals 7, 8, 9
  Formula II Concentrations in Mouse Whole Blood, individual animals: 18.4 ng/mL and 14.7 ng/mL
[2]; 2 mg/kg IP QD × 3 days, Day 2, 1.00 hrs, animals 7, 8, 9
  Formula II Concentrations in Mouse Whole Blood, individual animals: 481 ng/mL and 208 ng/mL and 524 ng/mL
[2]; 2 mg/kg IP QD × 3 days, Day 2, 2.00 hrs, animals 7, 8, 9
  Formula II Concentrations in Mouse Whole Blood, individual animals: 501 ng/mL and 233 ng/mL and 570 ng/mL
[2]; 2 mg/kg IP QD × 3 days, Day 2, 6.00 hrs, animals 7, 8, 9
  Formula II Concentrations in Mouse Whole Blood, individual animals: 632 ng/mL and 552 ng/mL
[2]; 2 mg/kg IP QD × 3 days, Day 2, 24.0 hrs, animals 7, 8, 9
  Formula II Concentrations in Mouse Whole Blood, individual animals: 15.3 ng/mL and 80.6 ng/mL and 35.2 ng/mL
[2]; 2 mg/kg IP QD × 3 days, Day 3, 1.00 hrs
  Formula II Concentrations in Mouse Whole Blood, Mean: 651 ng/mL
[2]; 2 mg/kg IP QD × 3 days, Day 3, 1.00 hrs, animals 7, 8, 9
  Formula II Concentrations in Mouse Whole Blood, individual animals: 726 ng/mL and 600 ng/mL
[2]; 2 mg/kg IP QD × 3 days, Day 3, 2.00 hrs
  Formula II Concentrations in Mouse Whole Blood, Mean: 501 ng/mL
[2]; 2 mg/kg IP QD × 3 days, Day 3, 2.00 hrs, animals 7, 8, 9
  Formula II Concentrations in Mouse Whole Blood, individual animals: 478 ng/mL and 489 ng/mL and 535 ng/mL
[2]; 2 mg/kg IP QD × 3 days, Day 3, 6.00 hrs
  Formula II Concentrations in Mouse Whole Blood, Mean: 588 ng/mL
[2]; 2 mg/kg IP QD × 3 days, Day 3, 6.00 hrs, animals 7, 8, 9
  Formula II Concentrations in Mouse Whole Blood, individual animals: 416 ng/mL and 745 ng/mL and 604 ng/mL
[2]; 2 mg/kg IP QD × 3 days, Day 3, 24.0 hrs
  Formula II Concentrations in Mouse Whole Blood, Mean: 41.9 ng/mL
[2]; 2 mg/kg IP QD × 3 days, Day 3, 24.0 hrs, animals 7, 8, 9
  Formula II Concentrations in Mouse Whole Blood, individual animals: 17.6 ng/mL and 59.6 ng/mL and 48.6 ng/mL
[2]; 2 mg/kg or 10 mg/kg IP QD for three days
  concentrations in whole blood over time (in words): sufficient concentrations in whole blood
[2]; 10 mg/kg IP QD × 3 days, Day 1, 1.00 hrs
  Formula II Concentrations in Mouse Whole Blood, Mean: 657 ng/mL
[2]; 10 mg/kg IP QD × 3 days, Day 1, 1.00 hrs, animals 10, 11, 12
  Formula II Concentrations in Mouse Whole Blood, individual animals: 560 ng/mL and 641 ng/mL and 769 ng/mL
[2]; 10 mg/kg IP QD × 3 days, Day 1, 2.00 hrs
  Formula II Concentrations in Mouse Whole Blood, Mean: 722 ng/mL
[2]; 10 mg/kg IP QD × 3 days, Day 1, 2.00 hrs, animals 10, 11, 12
  Formula II Concentrations in Mouse Whole Blood, individual animals: 793 ng/mL and 869 ng/mL and 503 ng/mL
[2]; 10 mg/kg IP QD × 3 days, Day 1, 6.00 hrs
  Formula II Concentrations in Mouse Whole Blood, Mean: 1165 ng/mL
[2]; 10 mg/kg IP QD × 3 days, Day 1, 6.00 hrs, animals 10, 11, 12
  Formula II Concentrations in Mouse Whole Blood, individual animals: 1000 ng/mL and 1950 ng/mL and 544 ng/mL
[2]; 10 mg/kg IP QD × 3 days, Day 1, 24.0 hrs
  Formula II Concentrations in Mouse Whole Blood, Mean: 204 ng/mL
[2]; 10 mg/kg IP QD × 3 days, Day 1, 24.0 hrs, animals 10, 11, 12
  Formula II Concentrations in Mouse Whole Blood, individual animals: 222 ng/mL and 181 ng/mL and 210 ng/mL
[2]; 10 mg/kg IP QD × 3 days, Day 2, 1.00 hrs
  Formula II Concentrations in Mouse Whole Blood, Mean: 2309 ng/mL
[2]; 10 mg/kg IP QD × 3 days, Day 2, 1.00 hrs, animals 10, 11, 12
  Formula II Concentrations in Mouse Whole Blood, individual animals: 3410 ng/mL and 2970 ng/mL and 546 ng/mL
[2]; 10 mg/kg IP QD × 3 days, Day 2, 2.00 hrs
  Formula II Concentrations in Mouse Whole Blood, Mean: 3323 ng/mL
[2]; 10 mg/kg IP QD × 3 days, Day 2, 2.00 hrs, animals 10, 11, 12
  Formula II Concentrations in Mouse Whole Blood, individual animals: 3670 ng/mL and 3930 ng/mL and 2370 ng/mL
[2]; 10 mg/kg IP QD × 3 days, Day 2, 6.00 hrs
  Formula II Concentrations in Mouse Whole Blood, Mean: 2256 ng/mL
[2]; 10 mg/kg IP QD × 3 days, Day 2, 6.00 hrs, animals 10, 11, 12
  Formula II Concentrations in Mouse Whole Blood, individual animals: 2770 ng/mL and 3390 ng/mL and 609 ng/mL
[2]; 10 mg/kg IP QD × 3 days, Day 2, 24.0 hrs
  Formula II Concentrations in Mouse Whole Blood, Mean: 179 ng/mL
